Patent publication US20250129027A1 (APOGEE PHARMACEUTICALS, INC., priority 2023, published 2025)
One block for each molecule: values may come before it.

Experiments:
human recombinant MAGL = human recombinant MAGL (Homo sapiens (Human), UniProt Q99685); assay: In vitro inhibition of MAGL activity (inhibitor screening kit, 4-nitrophenylacetate); type: biochemical; details: human recombinant MAGL
Experimental: The inhibitory effect of the compounds on activity of human recombinant MAGL was also studied using a commercial inhibitor screening kit (Cayman Chemicals). In brief, MAGL hydrolyzes 4-nitrophenylacetate resulting in a yellow product, 4-nitrophenol with an absorbance at 405-412 nm, while the inhibitor will inhibit the MAGL activity and thus reduce the yellow signal. The absorbance of the yellow product can be analyzed using the plate reader. Inhibition is calculated as a percentage of the treated sample over the non-treated MAGL control based on the signal values.

human recombinant FAAH = human recombinant FAAH (Homo sapiens (Human), UniProt O00519); assay: In vitro inhibition of FAAH activity (fluorescent inhibitor screening kit, AMC arachidonoyl amide); type: biochemical; details: human recombinant FAAH; read-out: Inhibition on FAAH activity (IC50)
human recombinant FAAH, sequence (O00519 whole entry): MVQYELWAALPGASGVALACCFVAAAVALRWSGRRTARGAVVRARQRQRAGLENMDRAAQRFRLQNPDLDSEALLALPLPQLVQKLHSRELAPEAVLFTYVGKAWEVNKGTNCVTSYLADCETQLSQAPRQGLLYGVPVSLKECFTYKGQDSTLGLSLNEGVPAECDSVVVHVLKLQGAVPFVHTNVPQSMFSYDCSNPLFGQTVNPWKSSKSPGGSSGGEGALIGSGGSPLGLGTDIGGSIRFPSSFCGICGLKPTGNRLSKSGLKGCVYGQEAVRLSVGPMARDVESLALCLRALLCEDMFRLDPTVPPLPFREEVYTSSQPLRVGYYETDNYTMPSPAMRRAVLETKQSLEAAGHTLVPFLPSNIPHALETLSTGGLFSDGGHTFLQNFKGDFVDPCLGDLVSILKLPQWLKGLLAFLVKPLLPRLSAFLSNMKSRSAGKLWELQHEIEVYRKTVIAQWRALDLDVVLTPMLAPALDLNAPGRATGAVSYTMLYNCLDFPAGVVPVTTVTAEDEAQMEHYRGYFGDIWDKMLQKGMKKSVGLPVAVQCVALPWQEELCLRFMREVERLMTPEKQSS
Excerpt: The inhibitory effect of compounds of Formula (I-IV) on the activity of human recombinant FAAH was studied using a commercial inhibitor screening kit (Cayman Chemicals, Godlewski et al., 2010 [19]). In brief, FAAH hydrolyzes AMC arachidonoyl amide resulting in the release of the fluorescent product, while the inhibitor will inhibit the FAAH activity and thus reduce the fluorescent signal. The resulting fluorophore can be analyzed using an excitation wavelength of 340-360 nm and an emission wavelength of 450-465 nm by a plate reader (Synergy H1, Biotek). Inhibition is calculated as a percentage of the treated sample over the non-treated control based on the signal values, and where possible, a range of concentrations of compounds was tested to find the IC50 values (i.e. the concentration of compound that inhibited 50% FAAH activity).

human recombinant MAGL, sequence (Q99685 whole entry): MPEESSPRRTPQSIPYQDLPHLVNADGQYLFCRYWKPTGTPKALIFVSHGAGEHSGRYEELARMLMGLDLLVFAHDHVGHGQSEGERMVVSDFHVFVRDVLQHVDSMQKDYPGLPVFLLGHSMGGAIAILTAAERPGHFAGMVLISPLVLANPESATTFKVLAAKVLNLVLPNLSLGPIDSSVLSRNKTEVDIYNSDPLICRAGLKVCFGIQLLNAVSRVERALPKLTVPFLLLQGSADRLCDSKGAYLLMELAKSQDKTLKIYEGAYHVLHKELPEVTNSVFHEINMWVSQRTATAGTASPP

Compound: O=C(NC1CCCC1)Oc1cccc(-c2cncc(-c3cccs3)c2)c1 [Example 62, 3-(5-(thiophen-2-yl)pyridin-3-yl)phenyl cyclopentylcarbamate]
IC50 (human recombinant MAGL): ~10000 nM | IC50 (human recombinant FAAH): 10 to 100 nM

Compound: CCCCCCCCNC(=O)Oc1cccc(-c2cncc(C(F)(F)F)c2)c1 [Example 30, 3-(5-(trifluoromethyl)pyridin-3-yl)phenyl octylcarbamate]
IC50 (human recombinant FAAH): 10 to 100 nM

Compound: CCCCCCCCNC(=O)Oc1cccc(-c2cncc(-c3nnco3)n2)c1 [Example 263, 3-(6-(1,3,4-oxadiazol-2-yl)pyrazin-2-yl)phenyl octylcarbamate]
IC50 (human recombinant MAGL): 1000 to 10000 nM | IC50 (human recombinant FAAH): 1 to 10 nM

Compound: COc1ccc(OC(=O)NCC2CCCCC2)cc1-c1cncc(-c2nnco2)c1 [Example 168, 3-(5-(1,3,4-oxadiazol-2-yl)pyridin-3-yl)-4-methoxyphenyl (cyclohexylmethyl)carbamate]
IC50 (human recombinant MAGL): > 10000 nM | IC50 (human recombinant FAAH): 100 to 1000 nM

Compound: O=C(NC1CCCC1)Oc1cccc(-c2cncc(-c3nnco3)n2)c1 [Example 266, 3-(6-(1,3,4-oxadiazol-2-yl)pyrazin-2-yl)phenyl cyclopentylcarbamate]
IC50 (human recombinant MAGL): 1000 to 10000 nM | IC50 (human recombinant FAAH): 10 to 100 nM

Compound: COc1ccc(OC(=O)NC2CCCCC2)cc1-c1cncc(-c2ncn[nH]2)c1 [Example 236, 3-(5-(1H-1,2,4-triazol-5-yl)pyridin-3-yl)-4-methoxyphenyl cyclohexyl carbamate]
IC50 (human recombinant MAGL): > 10000 nM | IC50 (human recombinant FAAH): 100 to 1000 nM

Compound: O=C(NCC1CCCCC1)Oc1cccc(-c2cncc(-c3nnco3)n2)c1 [Example 264, 3-(6-(1,3,4-oxadiazol-2-yl)pyrazin-2-yl)phenyl (cyclohexylmethyl)carbamate]
IC50 (human recombinant MAGL): ~10000 nM | IC50 (human recombinant FAAH): 10 to 100 nM

Compound: CCCCCCCCNC(=O)Oc1cccc(-c2cncc(C(=O)NO)c2)c1 [Example 23, 3-(5-(hydroxycarbamoyl)pyridin-3-yl)phenyl octylcarbamate]
IC50 (human recombinant MAGL): > 10000 nM | IC50 (human recombinant FAAH): > 1000 nM

Compound: CSc1ccc(OC(=O)NC2CCCC2)cc1-c1cncc(-c2nnco2)c1 [Example 189, 3-(5-(1,3,4-oxadiazol-2-yl)pyridin-3-yl)-4-(methylthio)phenyl cyclopentylcarbamate]
IC50 (human recombinant MAGL): > 10000 nM | IC50 (human recombinant FAAH): 100 to 1000 nM

IC50 (human recombinant MAGL): > 10000 nM | IC50 (human recombinant FAAH): ~10000 nM
Compound: CC1CCCCN1C(=O)Oc1cccc(-c2cncc(-c3nnco3)c2)c1 (stereo not drawn) [Example 143, 3-(5-(1,3,4-oxadiazol-2-yl)pyridin-3-yl)phenyl 2-methylpiperidine-1-carboxylate]

Compound: O=C(NC1CCCCCC1)Oc1ccc(O)c(-c2cncc(-c3nnn[nH]3)c2)c1 [Example 249, 3-(5-(1H-tetrazol-5-yl)pyridin-3-yl)-4-hydroxyphenyl cycloheptylcarbamate]
IC50 (human recombinant MAGL): > 10000 nM | IC50 (human recombinant FAAH): > 1000 nM

Compound: O=C(NC1CCCCC1)Oc1cccc(-c2cncc(-c3ncn[nH]3)c2)c1 [Example 224, 3-(5-(1H-1,2,4-triazol-5-yl)pyridin-3-yl)phenyl cyclohexylcarbamate]
IC50 (human recombinant MAGL): > 10000 nM | IC50 (human recombinant FAAH): 100 to 1000 nM

Compound: COc1ccc(OC(=O)NCc2ccccc2)cc1-c1cncc(-c2ncn[nH]2)c1 [Example 234, 3-(5-(1H-1,2,4-triazol-5-yl)pyridin-3-yl)-4-methoxyphenyl benzyl carbamate]
IC50 (human recombinant MAGL): > 10000 nM | IC50 (human recombinant FAAH): > 1000 nM

Compound: CCCCCCCCNC(=O)Oc1cccc(-c2cncc(-c3nnco3)c2)c1 [Example 130, 3-(5-(1,3,4-oxadiazol-2-yl)pyridine-3-yl)phenyl octylcarbamate]
IC50 (human recombinant FAAH): 1 to 10 nM

Compound: CCCCCCCCNC(=O)Oc1ccc(OC)c(-c2cncc(-c3nnco3)c2)c1 [Example 167, 3-(5-(1,3,4-oxadiazol-2-yl)pyridin-3-yl)-4-methoxyphenyl octylcarbamate]
IC50 (human recombinant FAAH): 1 to 10 nM

Compound: CCCCCCCNC(=O)Oc1cccc(-c2cncc(C#N)c2)c1 [Example 26, 3-(5-cyanopyridin-3-yl)phenyl heptylcarbamate]
IC50 (human recombinant FAAH): 10 to 100 nM

Compound: CCCCCCCCNC(=O)Oc1ccc(OC)c(-c2cncc(-c3cccs3)c2)c1 [Example 65, 4-methoxy-3-(5-(thiophen-2-yl)pyridin-3-yl)phenyl octylcarbamate]
IC50 (human recombinant FAAH): 10 to 100 nM

Compound: CCCCCCCCCCCCNC(=O)Oc1cccc(-c2cncc(-c3nnco3)c2)c1 [Example 131, 3-(5-(1,3,4-oxadiazol-2-yl)pyridin-3-yl)phenyl dodecylcarbamate]
IC50 (human recombinant FAAH): 10 to 20 nM

Compound: CCCCCCCCNC(=O)Oc1cccc(-c2cncc(C#N)c2)c1 [Example 27, 3-(5-cyanopyridin-3-yl)phenyl octylcarbamate]
IC50 (human recombinant FAAH): 10 to 100 nM

Compound: CCCCCCCCNC(=O)Oc1cccc(-c2cncc(-c3ccco3)c2)c1 [Example 47, 3-(5-(furan-2-yl)pyridin-3-yl)phenyl octylcarbamate]
IC50 (human recombinant FAAH): 1 to 10 nM

Compound: CCCCCCCNC(=O)Oc1cccc(-c2cncc(C(=O)OC)c2)c1 [Example 9, methyl 5-(3-((heptylcarbamoyl)oxy)phenyl)nicotinate]
IC50 (human recombinant FAAH): 1 to 10 nM

Compound: COc1ccc(OC(=O)NC2CCCCC2)cc1-c1cncc(-c2nncs2)c1 [Example 217, 3-(5-(1,3,4-thiadiazol-2-yl)pyridin-3-yl)-4-methoxyphenyl cyclohexylcarbamate]
IC50 (human recombinant FAAH): 100 to 1000 nM

Compound: CCCCCCNC(=O)Oc1cccc(-c2cncc(-c3nnco3)c2)c1 [Example 128, 3-(5-(1,3,4-oxadiazol-2-yl)pyridin-3-yl)phenyl hexylcarbamate]
IC50 (human recombinant FAAH): 10 to 20 nM

Compound: CCCCCCCNC(=O)Oc1ccc(O)c(-c2cncc(-c3nnco3)c2)c1 [Example 156, 3-(5-(1,3,4-oxadiazol-2-yl)pyridin-3-yl)-4-hydroxyphenyl heptylcarbamate]
IC50 (human recombinant FAAH): 1 to 10 nM

Compound: CCCCCCCNC(=O)Oc1ccc(OC)c(-c2cncc(-c3nnco3)c2)c1 [Example 166, 3-(5-(1,3,4-oxadiazol-2-yl)pyridin-3-yl)-4-methoxyphenyl heptylcarbamate]
IC50 (human recombinant FAAH): 10 to 100 nM

Compound: CCCCCNC(=O)Oc1cccc(-c2cncc(C(=O)OC)c2)c1 [Example 8, methyl 5-(3-((pentylcarbamoyl)oxy)phenyl)nicotinate]
IC50 (human recombinant FAAH): 10 to 100 nM

Compound: CCCCCNC(=O)Oc1cccc(-c2cncc(C(=O)OCC)c2)c1 [Example 1, ethyl 5-(3-((pentylcarbamoyl)oxy)phenyl)nicotinate]
IC50 (human recombinant FAAH): 10 to 100 nM

Compound: O=C(NC1CCCCC1)Oc1cccc(-c2cc(-c3nnco3)ccn2)c1 [Example 260, 3-(4-(1,3,4-oxadiazol-2-yl)pyridin-2-yl)phenyl cyclohexylcarbamate]
IC50 (human recombinant MAGL): > 10000 nM

Compound: CCCCCCCCNC(=O)Oc1ccc(OC(F)(F)F)c(-c2cncc(-c3ncco3)c2)c1 [Example 88, 3-(5-(oxazol-2-yl)pyridin-3-yl)-4-(trifluoromethoxy)phenyl octylcarbamate]
IC50 (human recombinant FAAH): 10 to 100 nM

Compound: CCCCCCCCNC(=O)Oc1ccc(OC)c(-c2cncc(-c3ccc[nH]3)c2)c1 [Example 41, 3-(5-(1H-pyrrol-2-yl)pyridin-3-yl)-4-methoxyphenyl octylcarbamate]
IC50 (human recombinant FAAH): 10 to 100 nM

Compound: CCCCCCCCNC(=O)Oc1cccc(-c2cncc(C(=O)OCC)c2)c1 [Example 3, ethyl 5-(3-((octylcarbamoyl)oxy)phenyl)nicotinate]
IC50 (human recombinant FAAH): 10 to 100 nM

Compound: CCCCCCCCNC(=O)Oc1ccc(O)c(-c2cncc(-c3nnco3)c2)c1 [Example 157, 3-(5-(1,3,4-oxadiazol-2-yl)pyridin-3-yl)-4-hydroxyphenyl octylcarbamate]
IC50 (human recombinant FAAH): 1 to 10 nM

Compound: CCCCCCCCNC(=O)Oc1cccc(-c2cncc(C(=O)OC)c2)c1 [Example 10, methyl 5-(3-((octylcarbamoyl)oxy)phenyl)nicotinate]
IC50 (human recombinant FAAH): 1 to 10 nM
